The values that follow come from publication PMC7053747 (PLoS ONE, 2020).

In assay [1] the target is kappa opioid receptor (Homo sapiens, UniProt P41145). Description: biochemical. It counts as binding.
Assay [2] deals with delta opioid receptor (Homo sapiens, UniProt P41143). Description: biochemical. It counts as binding.
The target in assay [3] is T1, adrenergic alpha2A receptor (Homo sapiens, UniProt P08913).
T1 sequence (P08913 1-465): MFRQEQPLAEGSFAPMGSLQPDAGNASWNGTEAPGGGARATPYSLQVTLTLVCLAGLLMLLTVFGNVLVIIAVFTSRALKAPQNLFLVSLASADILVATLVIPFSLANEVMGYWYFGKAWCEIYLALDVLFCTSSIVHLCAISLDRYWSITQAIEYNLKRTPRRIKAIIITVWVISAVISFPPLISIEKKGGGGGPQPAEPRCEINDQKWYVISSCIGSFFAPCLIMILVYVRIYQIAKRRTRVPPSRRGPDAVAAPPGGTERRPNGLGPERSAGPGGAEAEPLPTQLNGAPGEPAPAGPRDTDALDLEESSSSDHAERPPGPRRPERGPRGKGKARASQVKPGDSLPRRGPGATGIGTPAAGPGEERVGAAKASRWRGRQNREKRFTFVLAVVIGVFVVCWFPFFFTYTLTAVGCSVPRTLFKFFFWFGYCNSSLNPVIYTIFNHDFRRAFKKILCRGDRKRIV
Description: biochemical. It counts as binding.

Assay [4] concerns the target T2, adrenergic alpha2B receptor (Homo sapiens, UniProt P18089).
T2 construct: host or cells: transient HEKT cells
T2 sequence (P18089 1-450): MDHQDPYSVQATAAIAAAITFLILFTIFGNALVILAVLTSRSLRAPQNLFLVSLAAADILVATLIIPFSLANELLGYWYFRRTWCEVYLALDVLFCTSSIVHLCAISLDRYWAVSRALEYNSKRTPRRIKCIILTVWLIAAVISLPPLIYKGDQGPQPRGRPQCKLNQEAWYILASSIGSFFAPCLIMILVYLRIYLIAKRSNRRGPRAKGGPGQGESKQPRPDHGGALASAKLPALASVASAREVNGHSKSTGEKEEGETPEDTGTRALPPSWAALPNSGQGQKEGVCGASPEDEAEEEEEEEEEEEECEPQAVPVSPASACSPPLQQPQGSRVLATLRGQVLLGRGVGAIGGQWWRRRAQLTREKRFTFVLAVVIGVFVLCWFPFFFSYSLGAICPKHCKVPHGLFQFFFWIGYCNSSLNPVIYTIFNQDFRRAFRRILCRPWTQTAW
In words: biochemical. It counts as binding.

Assay [5] addresses T3, adrenergic alpha2C receptor (Homo sapiens, UniProt P18825).
T3 sequence (P18825 1-462): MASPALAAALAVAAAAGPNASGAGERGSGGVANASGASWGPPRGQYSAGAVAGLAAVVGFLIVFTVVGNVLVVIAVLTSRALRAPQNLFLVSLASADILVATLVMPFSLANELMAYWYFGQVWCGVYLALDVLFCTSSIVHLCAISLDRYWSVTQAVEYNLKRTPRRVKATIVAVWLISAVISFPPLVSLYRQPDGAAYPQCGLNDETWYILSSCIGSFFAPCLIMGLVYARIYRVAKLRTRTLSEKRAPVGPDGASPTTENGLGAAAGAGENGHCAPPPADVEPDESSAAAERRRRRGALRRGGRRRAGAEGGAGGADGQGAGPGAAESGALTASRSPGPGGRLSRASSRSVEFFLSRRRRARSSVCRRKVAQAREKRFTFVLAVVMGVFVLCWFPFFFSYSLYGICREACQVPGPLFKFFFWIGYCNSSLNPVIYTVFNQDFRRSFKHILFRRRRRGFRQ
Description: biochemical. It counts as binding.

Assay [6] has as its target T4, serotonin 5HT1A receptor (Homo sapiens, UniProt P08908).
T4 sequence (P08908 1-422): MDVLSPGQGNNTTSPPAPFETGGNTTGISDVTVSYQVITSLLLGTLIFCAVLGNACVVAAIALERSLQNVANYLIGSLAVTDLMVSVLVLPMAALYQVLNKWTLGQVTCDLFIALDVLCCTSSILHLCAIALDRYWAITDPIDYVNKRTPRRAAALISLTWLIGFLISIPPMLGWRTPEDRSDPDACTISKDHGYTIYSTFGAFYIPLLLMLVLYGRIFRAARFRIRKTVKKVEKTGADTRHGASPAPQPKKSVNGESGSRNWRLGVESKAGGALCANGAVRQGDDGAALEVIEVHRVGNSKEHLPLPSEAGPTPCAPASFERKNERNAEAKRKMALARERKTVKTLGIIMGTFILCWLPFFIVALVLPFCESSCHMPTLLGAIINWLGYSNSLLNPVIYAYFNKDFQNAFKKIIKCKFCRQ
Description: biochemical. It counts as binding.

The target in assay [7] is T5, serotonin 5HT2A receptor (Homo sapiens, UniProt P28223).
T5 construct: host or cells: transient HEKT cells (ATCC CRL-11268)
In words: biochemical. It counts as binding.

In assay [8] the target is mouse opioid receptor. Particulars: read-out: binding affinity; cited from earlier work.
Assay [9] addresses human mu opioid receptor. Particulars: read-out: binding affinity; cited from earlier work.
The target in assay [10] is rodent mu opioid receptor. Particulars: read-out: binding affinity; cited from earlier work.
Assay [11] concerns the target human kappa opioid receptor. To be noted: read-out: binding affinity; cited from earlier work.
The target in assay [12] is rodent kappa opioid receptor. To be noted: read-out: binding affinity; cited from earlier work.
For assay [13], the target named is human delta opioid receptor. Particulars: read-out: binding affinity; cited from earlier work.
Assay [14] concerns the target rodent delta opioid receptor. To be noted: read-out: binding affinity; cited from earlier work.
Assay [15] concerns human mu opioid receptor. Particulars: cited from earlier work.
Assay [16] relates to rodent mu opioid receptors. To be noted: cited from earlier work.
Assay [17] has as its target mu opioid receptor (Homo sapiens, UniProt P35372). In words: biochemical. It counts as binding.
The target in assay [18] is mu opioid receptor. To be noted: cited from earlier work.

Read-outs that look alike come from different tables or passages of the source.

kappa opioid receptor, sequence (P41145 whole entry): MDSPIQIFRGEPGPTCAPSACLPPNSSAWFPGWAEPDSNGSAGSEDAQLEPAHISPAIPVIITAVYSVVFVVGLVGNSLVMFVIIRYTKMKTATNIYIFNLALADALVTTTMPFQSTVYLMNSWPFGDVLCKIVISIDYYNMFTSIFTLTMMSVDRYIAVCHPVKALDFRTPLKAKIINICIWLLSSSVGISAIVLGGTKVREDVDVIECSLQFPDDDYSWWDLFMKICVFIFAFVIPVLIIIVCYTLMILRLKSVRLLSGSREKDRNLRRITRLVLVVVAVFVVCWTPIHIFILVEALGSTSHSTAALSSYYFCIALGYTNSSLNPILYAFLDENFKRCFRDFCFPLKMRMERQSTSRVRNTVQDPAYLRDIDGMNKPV
mu opioid receptor (Homo sapiens, UniProt P35372), sequence (P35372 whole entry): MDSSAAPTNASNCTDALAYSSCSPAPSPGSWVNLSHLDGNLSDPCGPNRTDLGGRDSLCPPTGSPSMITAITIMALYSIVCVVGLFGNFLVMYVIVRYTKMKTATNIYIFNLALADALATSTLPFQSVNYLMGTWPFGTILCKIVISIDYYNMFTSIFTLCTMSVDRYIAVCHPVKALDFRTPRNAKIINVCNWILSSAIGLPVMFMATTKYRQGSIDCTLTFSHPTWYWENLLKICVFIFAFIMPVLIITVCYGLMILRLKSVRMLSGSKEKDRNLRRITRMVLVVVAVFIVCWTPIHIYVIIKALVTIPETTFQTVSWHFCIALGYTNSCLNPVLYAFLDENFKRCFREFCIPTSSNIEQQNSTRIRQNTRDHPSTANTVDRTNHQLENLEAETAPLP
T5 sequence (P28223 whole entry): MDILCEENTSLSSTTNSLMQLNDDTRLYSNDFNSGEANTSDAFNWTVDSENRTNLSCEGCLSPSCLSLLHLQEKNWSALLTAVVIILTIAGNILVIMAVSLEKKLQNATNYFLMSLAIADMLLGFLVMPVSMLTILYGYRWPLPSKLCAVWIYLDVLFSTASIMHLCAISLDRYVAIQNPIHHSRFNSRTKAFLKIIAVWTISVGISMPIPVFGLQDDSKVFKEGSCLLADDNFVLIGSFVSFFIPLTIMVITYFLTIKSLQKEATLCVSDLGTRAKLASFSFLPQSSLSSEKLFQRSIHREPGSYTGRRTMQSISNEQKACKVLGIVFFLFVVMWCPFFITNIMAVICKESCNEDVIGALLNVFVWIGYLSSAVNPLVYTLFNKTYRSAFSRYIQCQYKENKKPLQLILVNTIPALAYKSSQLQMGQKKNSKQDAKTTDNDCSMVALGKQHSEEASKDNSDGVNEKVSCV
delta opioid receptor, sequence (P41143 whole entry): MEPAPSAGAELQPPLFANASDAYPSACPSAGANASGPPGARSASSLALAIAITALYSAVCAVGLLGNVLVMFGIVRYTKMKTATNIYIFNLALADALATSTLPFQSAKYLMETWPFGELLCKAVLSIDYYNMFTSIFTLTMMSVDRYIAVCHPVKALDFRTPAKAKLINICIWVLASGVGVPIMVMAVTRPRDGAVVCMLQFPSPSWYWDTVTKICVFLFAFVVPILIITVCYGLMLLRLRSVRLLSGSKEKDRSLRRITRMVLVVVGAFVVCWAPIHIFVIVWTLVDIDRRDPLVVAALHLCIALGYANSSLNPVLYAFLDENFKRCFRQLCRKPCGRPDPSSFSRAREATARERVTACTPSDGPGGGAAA

For `CC[C@H]1CN2CCc3c([nH]c4cccc(OC)c34)[C@@H]2C[C@@H]1/C(=C\OC)C(=O)OC` [Compound 2, Speciogynine], the Ki in assay [1] (read-out: Ki) is 3.6 µM; in assay [2] (read-out: Ki) it was > 10 µM; in assay [3] (read-out: Ki), 0.36 µM; in assay [4] (read-out: Ki), 2.6 µM; in assay [5] (read-out: Ki) it was 0.68 µM; in assay [6] (read-out: Ki), 0.54 µM. Besides, the Ki in assay [7] (read-out: Ki) is 2.9 µM; in assay [8] it was < 10 µM.
Regarding `C=C[C@H]1CN2CCc3c([nH]c4cccc(OC)c34)[C@@H]2C[C@@H]1/C(=C\OC)C(=O)OC` [Compound 5, Paynantheine], the Ki in [9] is 0.41 ± 0.2 µM; in assay [10], 0.67 ± 0.08 µM; in [11] it was 2.6 ± 0.4 µM; in assay [12] it was 0.89 ± 0.3 µM; in [13], > 10 µM; in [14] it was 4.3 ± 0.7 µM. Besides, the “functional activity (BRET)” value in assay [15] was “antagonist”; in assay [16], “no agonist or antagonist activity”.
For the molecule `CC[C@@H]1CN2CC[C@@]3(O)C(=Nc4cccc(OC)c43)[C@@H]2C[C@@H]1/C(=C\OC)C(=O)OC` [Compound 7, 7-Hydroxymitragynine], the Ki was 0.32 µM in assay [1] (read-out: Ki); 0.47 µM in assay [2] (read-out: Ki); > 10 µM in [3] (read-out: Ki); > 10 µM in assay [4] (read-out: Ki); > 10 µM in assay [5] (read-out: Ki); > 10 µM in [6] (read-out: Ki). The Ki in assay [7] (read-out: Ki) is > 10 µM.
For the molecule `COC(=O)C1=CO[C@@H](C)C2CN3CCc4c([nH]c5ccccc45)[C@@H]3C[C@H]12` (some centres unmarked) [Compound 11, Ajmalicine], the Ki in assay [17] is 8.96 µM; in assay [1], > 10 µM; in [2] it was > 10 µM; in assay [3], 0.045 µM; in [5], 0.065 µM; in [6], 0.42 µM. In addition, in assay [7], the Ki is > 10 µM.
Consider `COC(=O)C1=CO[C@@H](C)[C@@H]2CN3CCc4c([nH]c5ccccc45)[C@@H]3C[C@H]12` [Compound 12, Tetrahydroalstonine], for which the Ki in assay [17] was > 10 µM; in [1] it was > 10 µM; in assay [2], > 10 µM; in assay [3] it was 0.018 µM; in [4], 0.04 µM; in assay [5] it was 0.053 µM. Moreover, the values for the Ki in [6] and in [7] were 0.38 µM and 2.6 µM, respectively.
Consider `CC[C@@H]1CN2CC[C@]3(C(=O)Nc4ccccc43)[C@@H]2C[C@@H]1/C(=C\OC)C(=O)OC` [Compound 14, Corynoxine B], for which the Ki in assay [17] was 1.6 µM; in [1] it was > 10 µM; in [2] it was 7.6 µM; in [3] it was > 10 µM; in assay [4] it was > 10 µM; in [5], > 10 µM. The Ki in assay [6] and in assay [7] was > 10 µM in each case.
Consider `CC[C@H]1CN2CC[C@@]3(C(=O)Nc4ccccc43)[C@@H]2C[C@@H]1/C(=C\OC)C(=O)OC` [Compound 16, Isorhynchophylline], for which the Ki was > 10 µM in assay [1]; 6.4 µM in [2]; 4.8 µM in assay [3]; > 10 µM in [4]; > 10 µM in [5]; > 10 µM in [6]. Besides, the Ki in assay [7] is > 10 µM.
Consider `C=C[C@H]1CN2CC[C@]3(C(=O)Nc4ccccc43)[C@@H]2C[C@@H]1/C(=C\OC)C(=O)OC` [Compound 20, Corynoxeine], for which the Ki in assay [17] is > 10 µM; in [1], > 10 µM; in [2], > 10 µM; in assay [3] it was > 10 µM; in assay [4], 8.4 µM; in assay [5], > 10 µM. The Ki in [6] and in assay [7] was > 10 µM each time.
For `C=C[C@H]1CN2CC[C@@]3(C(=O)Nc4ccccc43)[C@@H]2C[C@@H]1/C(=C\OC)C(=O)OC` [Compound 21, Isocorynoxeine], the Ki in assay [17], in assay [1], in [2], in assay [3], in assay [4] and in assay [5] was > 10 µM in each case. Also, the Ki in assay [6] and in assay [7] was > 10 µM in each case.
As for `CCOC(=O)C1(c2ccccc2)CCN(CCC(C#N)(c2ccccc2)c2ccccc2)CC1` [diphenoxylate], the Ki in assay [18] was 0.0124 µM.
On to `CCC(=O)O[C@](Cc1ccccc1)(c1ccccc1)[C@H](C)CN(C)C` [propoxyphene], for which, in assay [18], the Ki is 0.12 µM.
Take Mitragynine [Compound 1]: the Ki is 1.3 µM in assay [1] (read-out: Ki); 6.5 µM in [2] (read-out: Ki); 2.3 µM in assay [3] (read-out: Ki); 4.9 µM in assay [4] (read-out: Ki); 3.5 µM in assay [5] (read-out: Ki); 5.8 µM in assay [6] (read-out: Ki). Further, the Ki in assay [7] (read-out: Ki) turned out to be 7.3 µM. Also, the “functional activity (BRET)” value in [15] is on record as “partial agonist”; in assay [16] it was “competitive antagonist”.
